Consider five molecules from patent US11578095B2, “Compositions and methods for synthesizing 5'-Capped RNAs” (TriLink Biotechnologies, LLC, priority 2015, dated 2023).

Assay [1] deals with T7 RNAP (Escherichia phage T7, UniProt P00573). Conditions: transcription initiation; read-out: Kd for the first initiating NTP; cited from earlier work.
In assay [2] the target is T1, T7 RNA polymerase (Escherichia phage T7, UniProt P00573).
T1 construct: purchased New England Biolabs M0251
Type of assay: biochemical, T7 bacteriophage. Conditions: Primer/NTP Formulation 1: 6 mM primer, 1.5 mM GTP, 7.5 mM each ATP, CTP, UTP; capped peaks/(capped + 5′ OH peak). The protocol: A double stranded DNA transcription template encoding firefly luciferase was generated by polymerase chain reaction. The +1 template nucleotide was 2′-deoxycytidine. Transcription reactions were assembled with 25 ug/mL transcription template, 40 mM Tris-HCl (pH 8.0), 27 mM MgCl2, 2 mM spermidine, 10 mM DTT, 0.002% Triton X-100, 1000 unit/mL murine RNase inhibitor (New England Biolabs catalog #M0314), 2 unit/mL inorganic pyrophosphatase (New England Biolabs catalog #M2403), 4000 units/mL T7 RNA polymerase (New England Biolabs catalog #M0251), 6 mM ARCA (^m7G3′OmepppGG), 1.5 mM GTP, 7.5 mM ATP, 7.5 mM CTP and 7.5 mM UTP. Transcriptions were incubated at 37° C. for 2 hours. Reactions were supplemented with 10 mM Tris-HCl (pH 7.6), 2.5 mM MgCl2, 0.5 mM CaCl2 and 100 units/mL DNase I (New England Biolabs catalog #M0303) and incubated for 1 hour at 37° C. The resulting mRNAs were purified using an RNeasy Maxi kit (Qiagen catalog #75162) according to manufacturer's instructions. mRNAs were eluted in water and dephosphorylated by adjusting the solution to 50 mM Bis-Tris-Propane HCl (pH 6.0), 1 mM MgCl2, 0.1 mM ZnCl2 and 250 units/mg Antarctic phosphatase (New England Biolabs catalog #M0289). The reaction were incubated at 37° C. for 1 hour. The resulting mRNAs were purified using an RNeasy Maxi kit (Qiagen catalog #75162) according to manufacturer's instructions. mRNAs were eluted in water.
A double stranded firefly luciferase DNA transcription template specific for each trimer is generated by polymerase chain reaction. These templates differed in template nucleotides +1 and +2. For a given trimer, template nucleotide +1 was complementary to B1 (the nucleotide destined to become transcript nucleotide +1). Likewise template nucleotide +2 was complementary to […] (the nucleotide destined to become transcript nucleotide +2; see Example 10)). Transcription reactions are assembled with 25 ug/mL transcription template, 40 mM Tris-HCl (pH 8.0), 27 mM MgCl2, 2 mM spermidine, 10 mM DTT, 0.002% Triton X-100, 1000 unit/mL murine RNase inhibitor (New England Biolabs catalog #M0314), 2 unit/mL inorganic pyrophosphatase (New England Biolabs catalog #M2403), 4000 units/mL T7 RNA polymerase (New England Biolabs catalog #M0251) and 6 mM of initiating capped oligonucleotide primer, 1.5 mM GTP and 7.5 mM each of ATP, CTP and UTP. In subsequent examples, this primer/NTP formulation will be referred to as Primer/NTP Formulation 1. It is clear to one skilled in the art that other polymerases such as T7, T3 or SP6 RNA polymerases could be used instead of T7 RNA polymerase to perform the same function by using their respective promoters. Transcription reaction mixtures are incubated at 37° C. for 2 hours. Reactions are supplemented with 10 mM Tris-HCl (pH 7.6), 2.5 mM MgCl2, 0.5 mM CaCl2 and 100 units/mL DNase I (New England Biolabs catalog #M0303) and incubated for 1 hour at 37° C. The resulting mRNAs are purified using an RNeasy Maxi kit (Qiagen catalog #75162) according to manufacturer's instructions. mRNAs are eluted in water and dephosphorylated by adjusting the solution to 50 mM Bis-Tris-Propane HCl (pH 6.0), 1 mM MgCl2, 0.1 mM ZnCl2 and 250 units/mg Antarctic phosphatase (New England Biolabs catalog #M0289). The reaction is incubated at 37° C. for 1 hour. The resulting mRNAs are purified using an RNeasy Maxi kit (Qiagen catalog #75162) according to manufacturer's instructions. mRNAs are eluted in water.
Initiating capped oligonucleotide primer ^7mG3′OmepppA2′OmepG2′OmepG were used in transcription. Transcription were carried out as in Example 11 with the following modifications. A double stranded DNA transcription template specific for tetramer was generated by polymerase chain reaction. The template nucleotide +1 (2′-deoxythymidine) was complementary to Adenosine (the first nucleotide of the primer destined to become a transcript nucleotide +1).

The conditions of assay [3]: excess of ^7mGpppG over pppG from 4:1 to 10:1; cited from earlier work.

T1 sequence (P00573 whole entry): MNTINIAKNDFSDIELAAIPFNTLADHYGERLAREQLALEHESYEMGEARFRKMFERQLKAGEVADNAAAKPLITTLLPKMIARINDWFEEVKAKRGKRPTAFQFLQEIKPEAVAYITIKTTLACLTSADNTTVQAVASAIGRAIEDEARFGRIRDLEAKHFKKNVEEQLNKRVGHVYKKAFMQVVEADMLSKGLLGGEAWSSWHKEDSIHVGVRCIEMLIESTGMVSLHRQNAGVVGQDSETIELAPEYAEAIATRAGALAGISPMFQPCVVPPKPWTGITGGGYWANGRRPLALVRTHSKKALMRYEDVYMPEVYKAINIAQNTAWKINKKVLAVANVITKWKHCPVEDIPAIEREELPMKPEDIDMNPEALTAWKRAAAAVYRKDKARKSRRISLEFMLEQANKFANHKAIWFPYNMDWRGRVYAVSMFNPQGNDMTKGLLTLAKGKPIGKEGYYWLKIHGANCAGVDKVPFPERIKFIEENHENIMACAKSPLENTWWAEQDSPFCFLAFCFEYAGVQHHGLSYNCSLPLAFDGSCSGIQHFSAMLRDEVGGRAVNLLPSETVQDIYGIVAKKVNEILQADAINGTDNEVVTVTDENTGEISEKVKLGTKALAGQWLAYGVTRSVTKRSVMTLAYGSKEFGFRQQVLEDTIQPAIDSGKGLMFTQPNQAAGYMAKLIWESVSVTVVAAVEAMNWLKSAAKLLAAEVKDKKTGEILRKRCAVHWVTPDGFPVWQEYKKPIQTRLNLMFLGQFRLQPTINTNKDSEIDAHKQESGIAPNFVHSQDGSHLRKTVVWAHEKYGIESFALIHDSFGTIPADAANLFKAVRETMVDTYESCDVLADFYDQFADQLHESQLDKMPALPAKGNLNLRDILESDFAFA
T7 RNAP, sequence (P00573 whole entry): as above

Regarding `Nc1nc2c(ncn2[C@@H]2O[C@H](COP(=O)(O)OP(=O)(O)OP(=O)(O)O)[C@@H](O)[C@H]2O)c(=O)[nH]1` [GTP, guanosine triphosphate], in assay [1], the Kd (commonly the free concentration of one partner at which half of the binding sites on the other are occupied at equilibrium, for simple one-to-one binding) was 2000 µM.
Consider ^m7GpppC2′OmepG, for which the “observed % capping (capping efficiency)” value in assay [2] worked out at 98%.
For the molecule ^7mG(5′)ppp(5′)G [^7mGpppG], the “5′-Cap structure mRNA transcripts” value in assay [3] is on record as 80-90%.
On to ^m7GpppG2′OmepG, for which the “observed % capping (capping efficiency)” value in assay [2] is 89%.
The same measure, in the same setting: for ^m7G3′OmepppG2′OmepG the value was 87%.
